Data as given in patent US12168013B2, “Antiviral prodrugs and nanoformulations thereof” (Board of Regents of the University of Nebraska, priority 2018, dated 2024).
Converted amounts (≈) assume the structure as drawn. “And” between values parts separate entries of the source, which are not always exact repeats. Equal values may be shown once. Values belong to the compound of their own block, whether it stands above or below them.

Assays:
HIV-1ADA = test: Half-maximum effective concentration (EC50) assay, HIV-1 RT activity in MDM; format: cell-based; details: HIV-1ADA MOI 0.1, 10 days
Description: MDMs were plated in clear flat-bottom 24-well plates at a density of 0.8×10^6 cells/well. […] Following treatment, cells were washed with PBS and cultured in fresh culture medium with half-media replacement every other day. At 1, 5, 10, 15, 20, 25 and 30 days after the treatment, the cells were infected with HIV-1ADA (a macrophage tropic viral strain) at a multiplicity of infection (MOI) of 0.1 infectious particles per cell for 16 hours. Following infection period, MDM were washed with PBS and replenished with fresh media. Cells were cultured for next ten days with half-media replacement every other day, and the full media replacement on the 8th day. The culture media was collected on the 10th day after infection for the measurement of HIV-1 RT activity (Kalter, et al., J. Immunol. (1991) 146:3396-3404; Nowacek, et al., J. Neuroimmune Pharm. (2010) 5:592-601). The extent of infection was expressed as a percent of RT activity by infected MDM that were not treated. Cells were fixed in 2% PFA, and expression of HIV-1 p24 antigen was determined by immunocytochemistry (Nowacek, et al., J. Neuroimmune Pharm. (2010) 5:592-601).
MDM were plated in clear flat-bottom 96-well plates (0.08×10^6 cells/well). […] After 4 hours of viral challenge, cells were washed and given fresh media containing drug (0.1-1000 nM). Subsequently, cell supernatants were collected 10 days later and assayed for HIV-1 RT activity as described above.

Aqueous solubility = format: physicochemical; details: optima water, room temperature; for solubility at 24 h: thermodynamic from solid; for aqueous solubility: 24 hours
Description: The aqueous solubility of CAB, MCAB, M2CAB and M3CAB in optima water was determined by adding the excess drug or prodrug powder in 1 mL water to make the saturated aqueous solution. The mixture was stirred for 24 hours at room temperature. Further, the solution was centrifuged at 14000 rpm for 10 minutes to pellet the undissolved powder. The supernatant was collected, lyophilized and dissolved in methanol for the drug content analysis by UPLC UV/Vis.

[1] = Chemical stability at acidic, neutral and basic pH; format: physicochemical; details: for prodrug hydrolysis: 24 hours
Description: The stability of MCAB, M2CAB and M3CAB in acidic (pH 1), basic (pH 11) and neutral (pH 7) conditions at room temperature and elevated temperature (37° C.) was determined. The stock solution of each prodrug was prepared in DMSO at a concentration of 1 mg/mL. For acidic, basic and neutral assays, 100 μL of stock solution of each prodrug was added to 1900 μL of 0.1 M HCl, 0.1 M NaOH or optima-grade water (pH adjusted to 7), respectively. Samples were then incubated at room temperature and […] under shaking conditions (Innova® 42 shaker incubator, 150 rpm). Samples were withdrawn at 0, 2, 4, 8 and 24 hours and stored at −80° C. Later, samples were analyzed for drug content by UPLC-UV/Vis.

1-octanol solubility = details: organic solvent or mixture
[2] = Plasma cleavage drug hydrolysis kinetics; format: in vitro ADME, mouse, rat, rabbit, monkey, dog, and human; details: for prodrug cleavage in plasma: plasma of all species tested
Description: The hydrolysis kinetics of MCAB, M2CAB and M3CAB and relative release of active drug were determined in plasma of different species (mouse, rat, rabbit, monkey, dog, and human). MCAB, M2CAB or M3CAB (1 μM) were incubated in 100 μL plasma at 37° C. At different time points, 1 mL acidified methanol (0.1% formic acid and 25 mM ammonium formate to avoid further prodrug hydrolysis) was added to each sample and vortexed for 3 minutes to stop the reaction. For 0-minute time-point, a 100 μL ice cold plasma was spiked with prodrug stock solution, and 1 ml of ice cold acidic methanol was added immediately. Following the addition of methanol, samples were centrifuged at 15,000 g for 10 minutes, and collected supernatant was analyzed for drug content by UPLC-MS/MS (Waters Xevo TQ-XS).

[3] = PK and biodistribution in NSG mice; format: in vivo
Description: Drug levels from plasma and tissues were assayed by UPLC-MS/MS. Drug levels in plasma were monitored weekly.
Following injection, blood samples were collected into heparinized tubes at day 1 post-administration and then weekly up to day 364 by cheek puncture (submandibular vein, MEDIpoint, Inc., Mineola, NY). Collected blood (25 μL) was immediately diluted into 1 mL ACN and stored at −80° C. until drug measurements. Remaining blood samples were centrifuged at 2,000 g for 8 minutes for plasma collection. Plasma was collected and stored at −80° C. for analysis of drug contents. At day 14, 28, 42 and 364 following administration, animals were humanly euthanized by isoflourane inhalation, followed by cervical dislocation. Spleen, lymph nodes, liver, lung, gut, kidney, brain, vaginal tissue, and rectal tissue were collected for quantitation of CAB and prodrug concentrations. CAB, MCAB, M2CAB and M3CAB were quantitated in mouse plasma, blood and tissues by UPLC-MS/MS using a Waters ACQUITY H-class UPLC (Waters, Milford, MA, USA) connected to a Xevo TQ-S micro mass spectrometer. All solvents for sample processing and UPLC-MS/MS analysis were LCMS-grade (Fisher). For plasma and blood samples, 25 μL of sample was added into 1 mL acetonitrile (ACN) spiked with 10 μL internal standard (IS). d3-Dolutegravir (d3-DTG), myristoylated dolutegravir (MDTG), and stearoylated darunavir (SDRV), at a final concentration of 200, 20 and 20 ng/mL, respectively, were used as ISs for CAB, MCAB and M2CAB/M3CAB analyses, respectively. Samples were vortexed and centrifuged at 17,000×g for 10 minutes at 4° C. […] For tissue drug quantitation, 3-200 mg of sample was homogenized in 4-29 volumes of 0.1% v/v formic acid and 2.5 mM ammonium formate containing 90% methanol. […] For CAB quantitation, chromatographic separation of 10 μL CAB sample was performed on a Waters ACQUITY UPLC BEH Shield RP18 column (1.7 μm, 2.1 mm×100 mm) using a 10-minute gradient of mobile phase A (7.5 mM ammonium formate in water, adjusted to pH 3 using formic acid) and mobile phase B (100% ACN) at a flow rate of 0.25 mL/minute. […]

HIV-1 = details: protein-adjusted; cited from earlier work
[4] = after oral administration; cited from earlier work
[5] = Human immunodeficiency virus 1, 240 h

EC50 (HIV-1ADA; [5]): 0.0447 µM
solubility at 24 h (Aqueous solubility): 0.00191 ± 0.00023 mg/mL (≈ 2.84 µM)
prodrug hydrolysis ([1]; 37° C., acidic (pH 1)): > 95%
prodrug hydrolysis ([1]; 37° C., neutral (pH 7)): 28%
time to complete hydrolysis ([1]; 37° C., basic (pH 11)): ≤ 2 h
prodrug hydrolysis ([1]; room temperature, acidic (pH 1)): 19%
prodrug hydrolysis ([1]; room temperature, basic (pH 11)): completely hydrolyzed
prodrug hydrolysis ([1]; room temperature, neutral (pH 7)): 24%
solubility (1-octanol solubility): 2.64 ± 0.02 mg/mL (≈ 3930 µM)
prodrug cleavage in plasma ([2]; by 2 hours, average): 75%
prodrug cleavage in plasma ([2]; by 6 hours, average): 80%
concentration at 1 day ([3]; female, NSG, mouse, whole blood, intramuscular, 45 mg/kg CAB-equivalents, day 1 post-injection, read-out: prodrug concentration in blood): 0.0313 µg/mL
SMILES: CCCCCCCCCCCCCCCCCC(=O)Oc1c2n(cc(C(=O)NCc3ccc(F)cc3F)c1=O)C[C@H]1OC[C@H](C)N1C2=O [M2CAB]

EC50 (HIV-1ADA): 0.0342 µM
aqueous solubility (Aqueous solubility): 0.00283 ± 0.00137 mg/mL (≈ 4.6 µM)
prodrug cleavage in plasma ([2]; within 30 minutes, 37° C., 1 μM): more than 85%
prodrug concentration in blood ([3]; day 1 post-injection): 22 ng/mL
prodrug levels in tissues ([3]; day 364): undetectable
SMILES: CCCCCCCCCCCCCC(=O)Oc1c2n(cc(C(=O)NCc3ccc(F)cc3F)c1=O)CC1OCC(C)N1C2=O (centres unmarked) [MCAB]

EC50 (HIV-1ADA): 0.0512 µM
aqueous solubility (Aqueous solubility): 0.00151 ± 0.0007 mg/mL (≈ 2.07 µM)
prodrug remaining in plasma ([2]; after 24 hours of incubation): around 50%
SMILES: CCCCCCCCCCCCCCCCCCCCCC(=O)Oc1c2n(cc(C(=O)NCc3ccc(F)cc3F)c1=O)CC1OCC(C)N1C2=O (centres unmarked) [M3CAB]

SMILES: C[C@H]1CO[C@@H]2Cn3cc(C(=O)NCc4ccc(F)cc4F)c(=O)c(O)c3C(=O)N12 [CAB, cabotegravir]
EC50 (HIV-1ADA; [5]): 0.0284 µM
solubility at 24 h (Aqueous solubility): 0.0121 ± 0.00041 mg/mL (≈ 29.9 µM)
solubility (1-octanol solubility): 0.09 ± 0.002 mg/mL (≈ 222 µM)
4×PA-IC90 (HIV-1): 0.66 mg/L and 0.664 mg/L
PA-IC90 (HIV-1): 0.166 mg/L
systemic half-life [4]: approximately 40 hours
